Reference: US20150104868A1, “Methods of Maintaining and Improving Biological Cell Function and Activity” (GARGILL INCORPORATED, priority 2012, published 2015)

Tests used:
HUVEC cells [1] = experiment: Oxidative damage: protein carbonyls in HUVEC; format: cell-based, human; conditions: HG 30 mM glucose 24 h, with or without 5 mM ERT/MAN
Method: The prepared cells were seeded in 6 well plates and T75 flasks and grown until 80% confluence. The medium was removed, and the cells were washed with Hank's Balanced Salt Solution (HBSS). […] The vehicle solution is the solvent for the test compounds, in this case being the medium without supplements. […] The cells described above were also incubated for 24 hours with a 7 mM, normal glucose (NG) solution or in some instances, with a 15 mM, intermediary glucose (IG) solution. See, for example, FIG. 6. Subsequently, the cells were incubated for 24 hours. The same protocol was used for incubation with Nε-(carboxymethyl)lysine (CML, final concentration 1 micromolar) and 1,3-morpholino sidnonimine (SIN-1, final concentration 0.5 mM). […] Hyperglycemia is strongly associated with oxidative stress, an imbalance between the formation of reactive oxygen species and the present antioxidants. Excess reactive oxygen species react with critical cellular targets, viz. membrane lipids, proteins and (deoxy)ribonucleic acids. […] Accordingly, one of the targeted assays included studying a comparison of HG to HGERT conditions, where the oxidative damage was evaluated showing that the protein carbonyls decreased from 6.55 nM/mg protein with HG to 3.77 with […]=0.089). Protein carbonyls are end products of reactions between proteins and reactive oxygen species (ROS), formed during oxidative stress. […]

Human 1.1E7 beta cells = experiment: 1.1E7 beta cell viability (trypan blue, Countess); format: cell-based; conditions: 10, 30, 45 mM glucose, with or without 5 mM ERT
Method: Cell culture: Human 1.1E7 beta cells were cultured in RPMI 1640 medium containing 10% fetal calf serum, 2 mM L-Glutamine and 1% penicillin/streptomycin. Cells were maintained at 37° C. in a 5% CO2 atmosphere.
Viability: Cells were seeded in a 24 well plate. After overnight attaching, the medium was removed and cells were washed with HBSS. […] After 1 hour incubation a vehicle or glucose solution was added to a final concentration of 10, 30 or 45 mM in the wells. Subsequently, cells were incubated for 24 hours, 48 hours, 6 days, and 7 days. After incubation, all cell material including medium and HBSS was collected and centrifuged (5 minutes, 500×g). Supernatant was removed and cells were resuspended in 100 μl HBSS. Cell suspensions were diluted 1:1 in 0.4% trypan blue dye and loaded in a Countess Chamber. Cells were counted using the Invitrogen Countess® automated cell counter (Life Technologies Europe BV, Bleiswijk, the Netherlands).

[2] = test system: Beta cells (Cell line: HIT-T15); experiment: HIT-T15 beta cell viability (trypan blue, Countess); format: cell-based; conditions: 6, 15 or 30 mM glucose 24 hours, with or without 5 mM ERT
Method: Beta cells (Cell line: HIT-T15) were obtained from supplier ATCC. The cells were seeded in 24 well plate (300,000 cells/well). After overnight attaching, the medium was removed and the cells were washed with HBSS. […] After 1 hour incubation, glucose solution was added to a final concentration of 6, 15, or 30 mM in the wells. Subsequently, the cells were incubated for 24 hours. After incubation, all cell material including medium and HBSS was collected and centrifuged (5 minutes, 500×g). The supernatant was removed and the cells were resuspended in 500 μl HBSS. The cell suspensions were diluted 1:1 in 0.4% trypan blue dye and loaded in a Countess Chamber. The cells were counted using the Countess cell counter, which calculated the viability (function and activity) of the cells.

erythrocytes [3] = conditions: in vitro model of radical-induced hemolysis; cited from earlier work
HUVEC cells [4] = experiment: Lipid peroxidation: malondialdehyde (MDA) in HUVEC; format: cell-based, human; conditions: 30 mM glucose, with or without 5 mM ERT
Method: The prepared cells were seeded in 6 well plates and T75 flasks and grown until 80% confluence. The medium was removed, and the cells were washed with Hank's Balanced Salt Solution (HBSS). […] The vehicle solution is the solvent for the test compounds, in this case being the medium without supplements. […] The cells described above were also incubated for 24 hours with a 7 mM, normal glucose (NG) solution or in some instances, with a 15 mM, intermediary glucose (IG) solution. See, for example, FIG. 6. Subsequently, the cells were incubated for 24 hours. The same protocol was used for incubation with Nε-(carboxymethyl)lysine (CML, final concentration 1 micromolar) and 1,3-morpholino sidnonimine (SIN-1, final concentration 0.5 mM).

[5] = test system: Geotrichum candidum cells (GCC); experiment: Function and activity of freeze-dried Geotrichum candidum culture; format: cell-based
Source text: A starter culture with Geotrichum candidum cells (GCC) was produced by ID growing GCC in a medium containing 10% glucose and other nutrients. […] The function and activity of GCC was reduced during such preservation process. […] Function and activity was expressed by measuring how many doses GCC culture with a standardized amount of activity and function can be obtained per liter fermentation broth.

erythrocytes [6] = experiment: Radical-induced hemolysis of erythrocytes; format: cell-based; conditions: erythrocytes exposed to hyperglycemic conditions, 24 h incubation
[7] = test system: Superoxide dismutases (total SOD, SOD1, SOD2); experiment: SOD activity, expression and protein levels in HUVEC; format: cell-based, human
Source text: One of the reactive oxygen species of which the production is likely to be increased during hyperglycemia is the superoxide radical (O2•—), potentially due to an over-activation of the mitochondrial respiratory chain. Superoxide dismutases (SODs) constitute a family of enzymes that effectively reduces the amount of superoxide radicals by turning them into hydrogen peroxide and oxygen. SODs occur in the cytoplasma (copper, zinc SOD or SOD1) and in the mitochondrion (manganese SOD or SOD2). A third form (SOD3 or EC-SOD) is found extracellularly. […] Accordingly, the expression protein and activity levels of SOD2 (which is the inducible SOD) SOD1 and total SOD activity were studied.
The total SOD activity (U/mg protein), SOD1 activity, SOD2 activity, SOD2 expression (by RT-PCR), and SOD2 protein (by Western blot) were not affected by HGERT vs HG […].

## OC[C@@H](O)[C@@H](O)CO [ERT, meso-1,2,3,4-tetrahydroxybutane]
HUVEC cells [1]
  protein carbonyls: 3.77 nM/mg protein
Human 1.1E7 beta cells; 6 and 7 days
  viability of 1.1E7 cells: entirely prevented this decrease in beta cell viability
Human 1.1E7 beta cells; 24 and 48 hours
  viability of 1.1E7 cells: did not have any impact on this maintained viability
[2]
  viability (function and activity) of HIT-T15 cells: attenuated this decrease significantly
Erythrocytes [3]
  onset of oxidative damage, ABTS-induced hemolysis: able to delay the onset of oxidative damage
HUVEC cells [4]
  malondialdehyde (MDA), end product of lipid peroxidation: Neither the exposure of the HUVEC cells to 5 mM ERT and 30 mM glucose (HGERT) nor to HG aloneaffected
[5]; 2% ERT
  Change in GCC cell activity and function (blank set at 100): 120
  improvement of GCC activity and function: 20%
[5]; 2% ERT added before freeze drying
  Doses/ltr fermentation broth: 621 Doses/ltr
[5]; 3% ERT
  Change in GCC cell activity and function (blank set at 100): 126
  improvement of GCC activity and function: 26%
[5]; 3% ERT added before freeze drying
  Doses/ltr fermentation broth: 652 Doses/ltr
[5]; 5% ERT
  Change in GCC cell activity and function (blank set at 100): 107
  increase of GCC activity and function: 8%
[5]; 5% ERT added before freeze drying
  Doses/ltr fermentation broth: 555 Doses/ltr
Erythrocytes [6]
  radical-induced hemolysis: able to inhibit radical-induced hemolysis
[7]; HGERT vs HG
  total SOD activity, SOD1 activity, SOD2 activity, SOD2 expression (RT-PCR), SOD2 protein (Western blot): not affected
[7]; HUVEC
  transcription and protein levels of SOD2: did not affect transcription or the protein levels of SOD2
[7]; hyperglycemic conditions, effect not significant
  total superoxide dismutase activity: appeared to increase the total superoxide dismutase activity
